# Where two headings read alike, the source gives them in different places.
# How the values were obtained:
# Citrobacter freundii E-9 = test: Potentiation disc assay with penicillin G (Table 9); assay type: cell-based; details: for Inhibition zone With pen. G: 50 μg/ml penicillin G in agar
# Description: (§1) (A) Ten milliliters of molten nutrient agar containing 50 μg/ml of penicillin G or cephaloridine, 0.8% of Kyokuto Nutrient Broth Powder and 1.0% of Difco Bacto-Agar (pH 7.0) were seeded with the beta-lactam-resistant, beta-lactamase-producing microorganisms indicated in Tables 9 and 10, and poured in a 9-cm Petri dish to provide the bio-assay agar plate. On this assay plate, 8-mm pulp discs containing 25 μl each of antibiotic PS-5 solutions at the indicated concentrations were placed and incubated at 35° C. for 18 hours before reading the inhibition zones. The control assay plate was similarly prepared without penicillin G nor cephaloridine. As reference antibiotics, penicillin G, ampicillin, oxacillin and cefazolin were disc-assayed under the same conditions.
# Proteus sp. P-22 = test: as above; assay type: cell-based; details: for Inhibition zone With pen. G: 50 μg/ml penicillin G in agar
# Description: as §1
# Enterobacter sp. E-8 = test: as above; assay type: cell-based; details: for Inhibition zone With pen. G: 50 μg/ml penicillin G in agar
# Description: as §1
# Serratia marcescens S-18 [1] = test: as above; assay type: cell-based; details: for Inhibition zone With pen. G: 50 μg/ml penicillin G in agar
# Description: as §1
# Proteus vulgaris P-5 = test: as above; assay type: cell-based; details: for Inhibition zone With pen. G: 50 μg/ml penicillin G in agar
# Description: as §1
# [2] = system: Enterobacter cloacae E-16; test: MIC by broth dilution (Table 13); assay type: cell-based; details: E16, 20 h
# Description: (§2) The MIC (minimum inhibitory concentration) values of the compound were determined on various pathogenic microorganisms including several resistant strains, utilizing the broth dilution method in BRAIN HEART INFUSION BROTH `Eiken` (EIKEN CHEMICAL CO., LTD.).
# (§3) The results were read after incubation at 35° C. for 20 hours. The minimum inhibitory concentration (MIC) values means the lowest concentration unit of the tritylation product of the antibiotic PS-5 was no growth of the corresponding microorganism was observed under the above described conditions. As the control antibiotics,the solutions of ampicillin and cephaloridine were prepared in BRAIN HEART INFUSION BROTH `Eiken` (pH 7.0) at a concentration of 100 μg/ml and treated same as the test compound of the present invention.
# [3] = system: Enterobacter aerogenes E-19; test: MIC by broth dilution (Table 13); assay type: cell-based; details: Klebsiella aerogenes, E19, 20 h
# Description: as §2, §3
# Serratia marcescens S-18 [4] = test: MIC by broth dilution (Table 13); assay type: cell-based; details: S18, 20 h
# Description: as §2, §3
# [5] = target: Beta-lactamase from Citrobacter freundii E-9 (Citrobacter freundii, UniProt P05193); test: Beta-lactamase inhibition, hydrolysis of cephaloridine (I50 CER); assay type: biochemical; details: Citrobacter freundii E-9 beta-lactamase; cephaloridine substrate; 15 minutes preincubation at 30° C.
# Description: The I50^CER value of hydrolysis of cephaloridine by beta-lactamasefor 10 minutes (from one minute to ten minutes after the incubation is started). The rate of hydrolysis of cephaloridine is measured by the decrease of optical density at […]. For routine inhibition assays, beta-lactamase of Citrobacter freundii E-9 and Proteus vulgaris P-5 were employed after purification by affinity chromatography with cephalexin-Sepharose 4B.
# Buffer: 0.1 M phosphate buffer (Na-K phosphate) (pH 6.8)
# Substrate: 0.05 micromole/ml in phosphate buffer
# Beta-lactamase: The enzyme was diluted enough to give a fall of ca. 0.1 optical density unit per 10 minutes at 255 mμ in the absence of an inhibitor. (Apparatus: Hitachi Spectrophotometer UV-VIS 139, Hitachi, Ltd.).
# (This can hold one control cuvette and three sample cuvettes. Four 1 cm quarz cuvettes (3 ml in volume) were employed. The temperature was maintained at 30° C. during the reaction). […]
# After pre-incubation, the substrate solution (pre-warmed at 30° C.; 3.0 ml) was added and quickly mixed to start the reaction. […] The value of I50^CER (μg/ml) was determined by diluting the inhibitor untill the dilution gave 50% of the rate of hydrolysis of cephaloridine recorded in the no-inhibitor control for 10 minutes (from 1 minute to 11 minutes after the substrate was added).
# [6] = pH and heat stability of trityl ester of antibiotic PS-5; assay type: physicochemical; details: for remaining at 0.5 h: phosphate buffer, read-out: Residual activity
# Description: The trityl ester of antibiotic PS-5 was dissolved in one volume of methanol and then diluted with 9 volumes of distilled water as soon as possible to provide a solution of 125 CCU/ml. A tenth molar dipotassium phosphate solution was adjusted with 5 N phosphoric acid or 5 N sodium hydroxide to the indicated pH's in the range of 3-9.
# To one milliliter each of the phosphate buffers, one milliliter each of the said solution of the trityl ester of antibiotic PS-5 was added and, if necessary, the pH value of the mixture was readjusted with phosphoric acid or sodium hydroxyde to the desired pH value. […]
# The control solution (pH 7.0) was kept in an ice bath for the experimental period. The residual antibiotic activity was assayed by the routine disc assay method with Comamonas terrigena B-996 as the test microorganism.
# Sequence of Beta-lactamase from Citrobacter freundii E-9 (P05193 21-381): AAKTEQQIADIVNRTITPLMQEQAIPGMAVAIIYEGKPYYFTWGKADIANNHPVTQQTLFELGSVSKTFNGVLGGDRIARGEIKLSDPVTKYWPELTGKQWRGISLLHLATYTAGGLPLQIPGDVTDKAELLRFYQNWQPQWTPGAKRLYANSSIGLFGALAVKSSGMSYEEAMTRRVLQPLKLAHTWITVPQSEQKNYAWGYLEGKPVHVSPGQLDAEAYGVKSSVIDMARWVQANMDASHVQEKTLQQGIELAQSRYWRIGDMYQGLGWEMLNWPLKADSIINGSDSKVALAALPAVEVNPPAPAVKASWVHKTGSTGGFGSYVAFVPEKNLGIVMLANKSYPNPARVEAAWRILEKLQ
compound,measurement,setting,value
"CCC1C(=O)N2C(C(=O)O)=C(SCCNC(C)=O)CC12 (single isomer, unassigned) [Antibiotic PS-5]",zone of inhibition at 79.5 µg/mL,"Citrobacter freundii E-9; E9, 18 h, PS-5 79.5 μg/ml, read-out: Inhibition zone Without pen. G",10.4 mm
same,zone of inhibition at 100 µg/mL,"Citrobacter freundii E-9; E9, 18 h, PS-5 100 μg/ml, read-out: Inhibition zone Without pen. G",13.2 mm
same,zone of inhibition at 159 µg/mL,"Citrobacter freundii E-9; E9, 18 h, PS-5 159 μg/ml, read-out: Inhibition zone Without pen. G",17.2 mm
same,zone of inhibition at 318 µg/mL,"Citrobacter freundii E-9; E9, 18 h, PS-5 318 μg/ml, read-out: Inhibition zone Without pen. G",20.8 mm
same,Inhibition zone With pen. G,Citrobacter freundii E-9; PS-5 79.5 μg/ml,13.1 mm
same,Inhibition zone With pen. G,Citrobacter freundii E-9; PS-5 100 μg/ml,15.2 mm
same,Inhibition zone With pen. G,Citrobacter freundii E-9; PS-5 159 μg/ml,19.2 mm
same,Inhibition zone With pen. G,Citrobacter freundii E-9; PS-5 318 μg/ml,23.0 mm
same,zone of inhibition at 79.5 µg/mL,"Proteus sp. P-22; 18 h, PS-5 79.5 μg/ml, read-out: Inhibition zone Without pen. G",0 mm
same,zone of inhibition at 100 µg/mL,"Proteus sp. P-22; 18 h, PS-5 100 μg/ml, read-out: Inhibition zone Without pen. G",0 mm
same,zone of inhibition at 159 µg/mL,"Proteus sp. P-22; 18 h, PS-5 159 μg/ml, read-out: Inhibition zone Without pen. G",11.7 mm
same,zone of inhibition at 318 µg/mL,"Proteus sp. P-22; 18 h, PS-5 318 μg/ml, read-out: Inhibition zone Without pen. G",13.6 mm
same,Inhibition zone With pen. G,Proteus sp. P-22; PS-5 79.5 μg/ml,12.8 mm
same,Inhibition zone With pen. G,Proteus sp. P-22; PS-5 100 μg/ml,13.8 mm
same,Inhibition zone With pen. G,Proteus sp. P-22; PS-5 159 μg/ml,18.2 mm
same,Inhibition zone With pen. G,Proteus sp. P-22; PS-5 318 μg/ml,21.4 mm
same,Inhibition zone With pen. G,Enterobacter sp. E-8; PS-5 79.5 μg/ml,11.0 mm
same,Inhibition zone With pen. G,Enterobacter sp. E-8; PS-5 100 μg/ml,13.8 mm
same,Inhibition zone With pen. G,Enterobacter sp. E-8; PS-5 159 μg/ml,17.5 mm
same,Inhibition zone With pen. G,Enterobacter sp. E-8; PS-5 318 μg/ml,20.0 mm
same,zone of inhibition at 79.5 µg/mL,"Enterobacter sp. E-8; SP.E8, 18 h, PS-5 79.5 μg/ml, read-out: Inhibition zone Without pen. G",11 mm
same,zone of inhibition at 100 µg/mL,"Enterobacter sp. E-8; SP.E8, 18 h, PS-5 100 μg/ml, read-out: Inhibition zone Without pen. G",13.8 mm
same,zone of inhibition at 159 µg/mL,"Enterobacter sp. E-8; SP.E8, 18 h, PS-5 159 μg/ml, read-out: Inhibition zone Without pen. G",17.2 mm
same,zone of inhibition at 318 µg/mL,"Enterobacter sp. E-8; SP.E8, 18 h, PS-5 318 μg/ml, read-out: Inhibition zone Without pen. G",20.1 mm
same,Inhibition zone With pen. G,Serratia marcescens S-18 [1]; PS-5 79.5 μg/ml,13.8 mm
same,Inhibition zone With pen. G,Serratia marcescens S-18 [1]; PS-5 100 μg/ml,16.1 mm
same,Inhibition zone With pen. G,Serratia marcescens S-18 [1]; PS-5 159 μg/ml,22.0 mm
same,Inhibition zone With pen. G,Serratia marcescens S-18 [1]; PS-5 318 μg/ml,22.1 mm
same,zone of inhibition at 79.5 µg/mL,"Serratia marcescens S-18 [1]; S18, 18 h, PS-5 79.5 μg/ml, read-out: Inhibition zone Without pen. G",0 mm
same,zone of inhibition at 100 µg/mL,"Serratia marcescens S-18 [1]; S18, 18 h, PS-5 100 μg/ml, read-out: Inhibition zone Without pen. G",13 mm
same,zone of inhibition at 159 µg/mL,"Serratia marcescens S-18 [1]; S18, 18 h, PS-5 159 μg/ml, read-out: Inhibition zone Without pen. G",17.8 mm
same,zone of inhibition at 318 µg/mL,"Serratia marcescens S-18 [1]; S18, 18 h, PS-5 318 μg/ml, read-out: Inhibition zone Without pen. G",21.3 mm
same,zone of inhibition at 79.5 µg/mL,"Proteus vulgaris P-5; P5, 18 h, PS-5 79.5 μg/ml, read-out: Inhibition zone Without pen. G",0 mm
same,zone of inhibition at 100 µg/mL,"Proteus vulgaris P-5; P5, 18 h, PS-5 100 μg/ml, read-out: Inhibition zone Without pen. G",10.3 mm
same,zone of inhibition at 159 µg/mL,"Proteus vulgaris P-5; P5, 18 h, PS-5 159 μg/ml, read-out: Inhibition zone Without pen. G",14 mm
same,zone of inhibition at 318 µg/mL,"Proteus vulgaris P-5; P5, 18 h, PS-5 318 μg/ml, read-out: Inhibition zone Without pen. G",16 mm
same,Inhibition zone With pen. G,Proteus vulgaris P-5; PS-5 79.5 μg/ml,18.3 mm
same,Inhibition zone With pen. G,Proteus vulgaris P-5; PS-5 100 μg/ml,22.2 mm
same,Inhibition zone With pen. G,Proteus vulgaris P-5; PS-5 159 μg/ml,24.5 mm
same,Inhibition zone With pen. G,Proteus vulgaris P-5; PS-5 318 μg/ml,26.6 mm
"CCC1C(=O)N2C(C(=O)OC(c3ccccc3)(c3ccccc3)c3ccccc3)=C(SCCNC(C)=O)CC12 (single isomer, unassigned) [Trityl PS-5]",MIC,[2],10 µg/mL
same,MIC,[3],8.7 µg/mL
same,MIC,Serratia marcescens S-18 [4],10 µg/mL
same,IC50,[5],1.48 µM
same,Loss of activity,"[6]; aqueous solution, pH 7.5 for 90 minutes at 60° C.",no substantial loss of activity
same,remaining at 0.5 h,"[6]; pH 3.0, 60° C. for 30 minutes, percent of control",0%
same,remaining at 0.5 h,"[6]; pH 4.0, 60° C. for 30 minutes",0%
same,remaining at 0.5 h,"[6]; pH 5.0, 60° C. for 30 minutes",6.5%
same,remaining at 0.5 h,"[6]; pH 6.0, 60° C. for 30 minutes",79%
same,remaining at 0.5 h,"[6]; pH 7.0, 60° C. for 30 minutes",100%
same,remaining at 0.5 h,"[6]; pH 8.0, 60° C. for 30 minutes",100%
same,remaining at 0.5 h,"[6]; pH 9.0, 60° C. for 30 minutes",100%

# Reference: patent US4318916A, “Antibiotic PS-5 and derivatives having β-lactamase inhibitory activity and production thereof” (Sanraku-Ocean Co., Ltd., priority 1977, dated 1982)
